Measured values: US20190352276A1, “INHIBITORS OF BRUTON'S TYROSINE KINASE” (Joint Stock Company "Biocad", priority 2016, published 2019)

What was measured:
[1] = Stability in human blood plasma; conditions: 10 μM in pooled human blood plasma, incubated 4 hours at 37° C.
Procedure: To assess the blood plasma stability of the drug candidates, we used pooled human blood plasma taken from ten healthy donors. The initial solution (10 Mm in DMSO) was diluted with pooled blood plasma to 10 μM (test solution). The test solution had been incubated for 4 hours in a dry block heater at 37° C. We determined peak areas of the compounds corresponding to the start of the test (before incubating) and the end of the test (after incubating in a dry block heater at 37° C.) by HPLC using Agilent1200 chromatograph (Agilent, USA) with preliminary protein precipitation with acetonitrile. We used gradient elution (1 mL/min flow rate). We determined amount of substance in the sample in % after incubation.
We evaluated the stability of the compounds.

[2] = system: Mino (mantle cell lymphoma); test: Antiproliferative activity, Mino cells (Alamar Blue); type: cell-based; conditions: Homo sapiens, Table 10, 72 h, average of several tests
Procedure: (§1) Antiproliferative activity of BTK inhibitors was measured in cell-based bioassay on B-cells cultures: Mino (mantle cell lymphoma, ATCC® CRL-3000™), Z-138 (mantle cell lymphoma, ATCC® CRL-3001™) and DOHH2 (follicular lymphoma, Creative Bioarray CSC-C0219) using cell viability reagent Alamar Blue (Invitrogen, #DAL 1100). Cells were cultured in 10% FB S-supplemented (HyClone, #SH3008803/Gibco, #16140-071) RPMI-1640 (PanEco, #S330p) for at least 1 passage after thawing, washed with PBS and passaged in 96-well culture plates (Corning, #3599) with growth medium with 10% FBS (HyClone, #SH3008803/Gibco, #16140-071) and antibiotic (50 μg/ml of gentamicin (Biolot, #1.3.16))≈3*10^4 cells in 50 μl of medium per well.
(§2) The compounds were dissolved in DMSO and diluted with the assay medium to final concentrations ranging from […]. 150 μl of each diluted compound were then added to each well (final concentration of DMSO was less than 1%) and incubated at 37° C. in an incubator under 5% of CO2 for 72 h. After incubation, 20 μl of Alamar Blue reagent (Invitrogen, #DAL1100) were added to each well. The plates were shaked on an orbital shaker (Biosan, Latvia) and then incubated for 14-16 hours at 37° C. in the incubator.
(§3) The number of living cells were estimated, measuring the fluorescence signal at the excitation wavelength (REx) of 540 nm and the emission wavelength (λEm) of 590 nm on a microplate reader (Tecan Infinite M200Pro, Switzerland).
(§4) For each compound, IC50 was calculated using Magellan 7.2 software (Tecan, Switzerland) approximating experimental points by four-parameter logistic model with the optimization by Levenberg-Marquardt.

[3] = system: HepG2 cells (hepatocellular carcinoma); test: General cytotoxicity on HepG2 cells (CC50; therapeutic index CC50 HepG2/IC50 Mino); type: cell-based; conditions: Table 10; therapeutic index
Procedure: (§5) The CC50 values were determined in the test for General cytotoxicity on HepG2 cells (hepatocellular carcinoma, ATCC® HB-8065™). 2*10^4 cells (in 50 μl) per well were seeded in 96-well plates (Corning, #3599) in DMEM medium (PanEco, #S420p), after 24 h of incubation 150 μl of candidate compounds were added to each well in the range of final concentrations from 200 μM to 4 μM and the plate was incubated in a total volume of 200 μl for 72 hours. Viability of the cells was assessed using Alamar Blue dye (Invitrogen, #DAL 1100). CC50 was determined similarly (table 10).
(§6) The relationship between toxic (CC50) and a therapeutic (IC50) effects of the dose is the therapeutic index, which can be expressed as the ratio between CC50 (HepG2) (general cytotoxicity of the candidate) and IC50 (Mino) (antiproliferative activity on the target cells): […]

[4] = as above; type: cell-based; conditions: human, HepG2 cells (hepatocellular carcinoma); Table 10; 72 hours, Alamar Blue; average of several tests
Procedure: as §5, §6

[5] = Chemical stability in artificial gastric fluid (SGF without enzymes); conditions: 10 μM in SGF without enzymes, pH=1.4, 37° C.
[6] = system: Z-138 (mantle cell lymphoma); test: Antiproliferative activity, Z-138 cells (Alamar Blue); type: cell-based; conditions: Homo sapiens, Table 10, 72 h, average of several tests
Procedure: as §1, §2, §3, §4

Row | SMILES | Amount of substance in the sample, % (stability in human blood plasma) [1] [%] | IC50 [2] [µM] | Amount of substance in the sample in % (chemical stability) [5] [%] | IC50 [6] [µM] | CC50 (HepG2)/IC50 (Mino) [3] | CC50 at 72 h [4] [µM]
1 | C=CC(=O)Nc1cc2c(-c3ccc(-n4ccc(=O)cc4)cc3)nn([C@@H]3CCCN(C(=O)C=C)C3)c2nc1C [BCD-BTK-117, (R)-N-(1-(1-acryloylpiperidin-3-yl)-6-methyl-3-(4-(4-oxopyridin-1(4H)-yl)phenyl)-1H-pyrazolo[3,4-b]pyridin5-yl)acrylamide] |  | 13.3 | 99.7 | 23.4 | >3.76 | > 50
2 | C=CC(=O)Oc1cc(C#N)c2c(c1)c(-c1ccc(-n3ccc(=O)cc3)cc1)nn2[C@@H]1CCCN(C(=O)C=C)C1 [BCD-BTK-118, (R)-1-(1-acryloylpiperidin-3-yl)-7-cyano-3-(4-(4-oxopyridin-1(4H)-yl)phenyl)-1H-indazol-5-yl acrylate] |  | 13.7 | 95.4 | 7.84 | 4.83 | 66.2
3 | C=CC(=O)N1CCC[C@@H](n2nc(-c3ccc(-n4ccc(=O)cc4)cc3)c3cc(N)c(C)nc32)C1 [BCD-BTK-119, (R)-1-(4-(1-(1-acryloylpiperidin-3-yl)-5-amino-6-methyl-1H-pyrazolo[3,4-b]pyridin-3-yl)phenyl) pyridin-4(1H)-one] |  | 12.3 | 100.0 | 25.5 | >8.16 | > 100
4 | C=CC(=O)N1CCC[C@@H](n2nc(-c3ccc(-n4ccc(=O)cc4)cc3)c3cc(O)cc(C#N)c32)C1 [BCD-BTK-122, (R)-1-(1-acryloylpiperidin-3-yl)-5-hydroxy-3-(4-(4-oxopyridin-1(4H)-yl)phenyl)-1H-indazol-7-carbonitrile] |  | 35.6 | 97.5 | 36.5 | >2.81 | > 100
5 | C=CC(=O)Oc1cnc2c(c(-c3ccc(-n4ccc(=O)cc4)cc3)nn2[C@@H]2CCCN(C(=O)C=C)C2)c1Cl [BCD-BTK-136, (R)-1-(1-acryloylpiperidin-3-yl)-4-chloro-3-(4-(4-oxopyridin-1(4H)phenyl)-1H-pyrazolo[3,4-b]pyridin-5-yl acrylate] |  | 12.5 | 89.9 | > 50 | >7.97 | > 100
6 | C=CC(=O)N1CCC[C@@H](n2nc(-c3ccc(C(=O)Nc4cc(C(F)(F)CC)ccn4)cc3)c3cncc(C#N)c32)C1 [BCD-BTK-219, 4-{7-cyano-1-[1-(prop-2-enoyl)piperidin-3-yl]-1H-pyrazolo[4,3-c]pyridin-3-yl}-N-[4-(1,1-difluoropropyl)pyridin-2-yl] benzamide] |  | 10.1 | 96.7 | ~50 | >9.95 | > 100
7 | C=CC(=O)N1CCC[C@@H](n2nc(-c3ccc(C(=O)Nc4cc(C(C)(F)F)ccn4)cc3)c3cncc(C#N)c32)C1 [BCD-BTK-224, 4-{7-cyano-1-[(3R)-1-(prop-2-enoyl)piperidin-3-yl]-1H-pyrazolo[4,3-c]pyridin-3-yl}-N-[4-(1,1-difluoroethyl)pyridin-2-yl]benzamide] |  | 11 | 100 | > 50 | 6.63 | 73.1
8 | C=CC(=O)N1CCC[C@@H](n2nc(-c3ccc(Oc4ccncc4C(N)=O)cc3)c3cncc(F)c32)C1 [BCD-BTK-246, (R)-4-(4-(1-(1-acryloylpiperidin-3-yl)-7-fluoro-1H-pyrazolo[4,3-c]pyridin-3-yl)phenoxy)nicotinamide] |  | 32.4 | 100 | 23.7 | >3.09 | > 100
9 | C=CC(=O)N1CC[C@@H](Cn2nc(-c3ccc(C(=O)Nc4ccccn4)cc3)c3cncc(Cl)c32)C1 [BCD-BTK-284, (R)-4-(1-((1-acryloylpyrrolidin-3-yl)methyl)-7-chloro-1H-pyrazolo[4,3-c]pyridin-3-yl)-N-(pyridin-2-yl)benzamide] |  | 27.9 | 100 | 115 | >3.59 | > 100
10 | C=CC(=O)N1CC[C@H](Cn2nc(-c3ccc(C(=O)Nc4ccccn4)cc3)c3cncc(Cl)c32)C1 [BCD-BTK-285, (S)-4-(1-((1-acryloylpyrrolidin-3-yl)methyl)-7-chloro-1H-pyrazolo[4,3-c]pyridin-3-yl)-N-(pyridin-2-yl)benzamide] |  | 10.1 | 100 | > 34.6 | >9.91 | > 100

Second part, led by results:

Row | Amount of substance in the sample, % (stability in human blood plasma) [1] [%] | IC50 [2] [µM] | Amount of substance in the sample in % (chemical stability) [5] [%] | IC50 [6] [µM] | SMILES | CC50 (HepG2)/IC50 (Mino) [3] | CC50 at 72 h [4] [µM]
11 | 97.8 |  |  |  | C=CC(=O)N1CCC[C@@H](n2nc(-c3ccc(Oc4ccncc4)cc3)c3cncc(Cl)c32)C1 [BCD-BTK -125, (R)-1-(1-acryloylpiperidin-3-yl)-7-chloro-3-(4-(pyridin-4-yloxy)phenyl)-1H-pyrazolo[4,3-c]pyridine] |  | 
12 | 89.7 |  |  |  | C=CC(=O)N1CCC[C@@H](n2nc(-c3ccc(Oc4ccncc4)cc3)c3c(N)ncc(C#N)c32)C1 [BCD-BTK -134, (R)-1-(1-acryloylpiperidin-3-yl)-4-amino-3-(4-(pyridin-4-yloxy)phenyl)-1H-pyrazolo[4,3-c]pyridin-7-carbonitrile] |  | 
13 | 87.1 |  |  |  | C=CC(=O)N1CCC[C@@H](n2nc(-c3ccc(Oc4ccncc4)cc3)c3c(N)ncc(Cl)c32)C1 [BCD-BTK -139, (R)-1-(1-acryloylpiperidin-3-yl)-7-chloro-3-(4-(pyridin-4-yloxy)phenyl)-1H-pyrazolo[4,3-c]pyridin-4-amine] |  | 
14 | 84.5 |  |  |  | C=CC(=O)N1CCC[C@@H](n2nc(-c3ccc(C(=O)Nc4cccc(F)n4)cc3)c3c(N)ncc(Cl)c32)C1 [BCD-BTK -250, (R)-4-(1-(1-acryloylpiperidin-3-yl)-4-amino-7-chloro-1H-pyrazolo[4,3-c]pyridin-3-yl)-N-(6-fluoropyridin-2-yl)benzamide] |  | 
15 |  | 11.6 | 94.3 | 25.6 | C=CC(=O)N1CCC[C@@H](n2nc(-c3ccc(Oc4ccncc4)cc3)c3cc(O)cc(C#N)c32)C1 [BCD-BTK-137] | 5.70 | 65.9
16 |  | 16.9 | 99.4 | > 50 | C=CC(=O)N1CCC[C@@H](n2nc(-c3ccc(Oc4ccncc4)cc3)c3cncc(C(N)=O)c32)C1 [BCD-BTK-140, (R)-1-(1-acryloylpiperidin-3-yl)-3-(4-(pyridin-4-yloxy)phenyl)-1H-pyrazolo[4,3-c]pyridin-7-carboxamide] | >5.93 | > 100
17 |  | 4.92 | 97.8 | 14.3 | C=CC(=O)N1CC(Cn2nc(-c3ccc(Oc4ccncc4)cc3)c3cncc(Cl)c32)C1 [BCD-BTK-264, 1-(3-((7-chloro-3-(4-(pyridin-4-yloxy)phenyl)-1H-pyrazolo[4,3-c]pyridin-1-yl)methyl)azetidin-1-yl)prop-2-en-1-one] | 2.13 | 10.5
18 |  | 6.79 | 99.1 | 14.3 | CC#CC(=O)N1CC[C@H](n2nc(-c3ccc(Oc4ccncc4)cc3)c3cncc(Cl)c32)C1 [BCD-BTK-270, (S)-1-(3-(7-chloro-3-(4-(pyridin-4-yloxy)phenyl)-1H-pyrazolo[4,3-c]pyridin-1-yl)pyrrolidin-1-yl)but-2-yn-1-one] | 3.45 | 23.4
